Measurements from a compilation of properties of binary mixtures (doi:10.1021/je100671v).

Assay: xn = mol fraction of the nth substance listed
Conditions: 101.3 kPa

CCO + c1c[nH+]c[nH]1.CCCCCCCC(=O)[O-]
x1 = 1
Conditions	viscosity [mPa·s]
298.15 K	1.1
308.15 K	0.91
313.15 K	0.83
318.15 K	0.72
323.15 K	0.615

O + c1c[nH+]c[nH]1.CCCCCCCC(=O)[O-]
x1 = 1
Conditions	viscosity [mPa·s]
298.15 K	0.89
303.15 K	0.797
323.15 K	0.556

CCCCCCCC(=O)[O-].c1c[nH+]c[nH]1 + CCO
viscosity [mPa·s]
Conditions	x2 = 0	x2 = 0.1043	x2 = 0.1984	x2 = 0.301	x2 = 0.4	x2 = 0.4786	x2 = 0.5999	x2 = 0.7006	x2 = 0.7999	x2 = 0.8989
293.15 K	88.5	68.7	–	–	29.8	22.9	–	10.32	6.03	3.236
298.15 K	71.3	55.78	44.5	34	25.5	20	13.3	9.32	5.47	–
303.15 K	56.48	–	36.53	28.9	22.3	17.8	–	8.4	4.93	–
308.15 K	45.3	36.81	30.43	24.8	19.9	16.4	11.4	7.77	4.54	2.471
313.15 K	–	31	26.09	–	17.2	14	–	–	4.19	2.278
318.15 K	30.56	26.2	22.4	18.8	15.3	12.6	–	6.3	3.96	–
323.15 K	25.33	22.3	19.6	16.7	14.1	12	8.9	6.4	4.43	–

CC#N + c1c[nH+]c[nH]1.CCCCCCCC(=O)[O-]
x1 = 1
Conditions	viscosity [mPa·s]
293.15 K	0.35
303.15 K	0.325
308.15 K	0.292
313.15 K	0.279
318.15 K	0.245

CCCCCCCC(=O)[O-].c1c[nH+]c[nH]1 + CC#N
viscosity [mPa·s]
Conditions	x2 = 0	x2 = 0.1044	x2 = 0.1986	x2 = 0.298	x2 = 0.4005	x2 = 0.499	x2 = 0.5995	x2 = 0.6924	x2 = 0.7988	x2 = 0.8996
293.15 K	88.5	66	50.42	–	25.96	–	–	5.8	2.747	–
298.15 K	71.3	54.3	41.88	32	22.7	16.11	10	6.3	3.3	1.199
303.15 K	–	–	35.3	27.47	20.17	14.67	–	5.6	2.402	1.21
308.15 K	45.3	37	30.04	23.68	17.89	–	8.4	5.5	2.808	1.241
313.15 K	36.92	31.4	26.1	20.83	15.6	11.4	7.4	4.4	2.23	1.397
318.15 K	30.56	26.31	22.3	–	–	10.7	7.51	5.1	3.1	1.77
323.15 K	25.33	22.52	19.55	16.21	13.2	–	–	5.38	3.223	1.6

CCCCCCCC(=O)[O-].c1c[nH+]c[nH]1 + CCCCCCCCO
viscosity [mPa·s]
Conditions	x2 = 0	x2 = 0.1011	x2 = 0.1999	x2 = 0.2991	x2 = 0.4	x2 = 0.5007	x2 = 0.6005	x2 = 0.6999	x2 = 0.799	x2 = 0.8997
293.15 K	88.5	78	64.4	51.03	–	30.85	–	18	13.4	10.5
298.15 K	71.3	63.2	52.31	41.9	–	–	–	15.39	11.7	–
303.15 K	56.48	50.26	42.2	34.44	27.5	21.67	–	13.24	10	8.33
308.15 K	45.3	–	34.63	28.56	23.23	18.76	14.95	–	9.4	7.64
313.15 K	36.92	33.14	28.5	23.44	19.4	15.57	–	9.79	7.5	5.94
318.15 K	30.56	–	23.63	19.8	16.4	13.05	10.7	8.46	–	–
323.15 K	25.33	–	20.17	–	14.21	11.6	9.4	7.48	5.9	–

CCCCCCCC(=O)[O-].c1c[nH+]c[nH]1 + O
viscosity [mPa·s]
Conditions	x2 = 0	x2 = 0.0989	x2 = 0.1964	x2 = 0.3042	x2 = 0.4091	x2 = 0.5119	x2 = 0.6017	x2 = 0.6643	x2 = 0.7995	x2 = 0.8154
293.15 K	88.5	67.9	58.6	–	–	45.7	–	34.9	22.18	20.63
298.15 K	71.3	54.06	46.3	43.3	41.1	–	32.99	29.09	–	17.59
303.15 K	56.48	41.7	36.57	–	33	30.4	27.23	–	16	14.75
308.15 K	45.3	33.19	29.22	27.6	26.5	25	22.3	20.32	13.52	12.62
313.15 K	36.92	27.32	–	22.8	21.89	20.82	18.94	17.17	11.72	–
318.15 K	30.56	–	20.39	–	18.6	17.87	–	14.9	10.4	–
323.15 K	–	–	17.55	–	16.17	15.72	14.35	13.4	9.76	–

CCCCCCCCO + c1c[nH+]c[nH]1.CCCCCCCC(=O)[O-]
x1 = 1
Conditions	viscosity [mPa·s]
298.15 K	7.84
303.15 K	6.42
308.15 K	5.34
313.15 K	4.66
318.15 K	3.7
323.15 K	2.84
